Like-named read-outs stand apart in the source and are kept apart here.
Columns and labels:
[1] = target: T1, NK-2 receptors (Cavia porcellus, UniProt Q64077); test: NK-2-receptor-antagonistic effectiveness in vivo in anaesthetised guinea pigs (NKA test stimulus); parameters: species or system guinea pig; conditions: for NK-2-receptor-antagonistic activity of colon motility, late drop in blood pressure and respiratory resistance (in words): cumulative administration i.v., antagonism detected 1 min. after administration had ended
T1 construct: the NK-2 receptors present in the gall-bladder preparations; from tissue; host or cells: Pirbright-White guinea pig: isolated gall-bladder (A2); anaesthetised whole animal (A3)
T1 sequence (Q64077 1-402): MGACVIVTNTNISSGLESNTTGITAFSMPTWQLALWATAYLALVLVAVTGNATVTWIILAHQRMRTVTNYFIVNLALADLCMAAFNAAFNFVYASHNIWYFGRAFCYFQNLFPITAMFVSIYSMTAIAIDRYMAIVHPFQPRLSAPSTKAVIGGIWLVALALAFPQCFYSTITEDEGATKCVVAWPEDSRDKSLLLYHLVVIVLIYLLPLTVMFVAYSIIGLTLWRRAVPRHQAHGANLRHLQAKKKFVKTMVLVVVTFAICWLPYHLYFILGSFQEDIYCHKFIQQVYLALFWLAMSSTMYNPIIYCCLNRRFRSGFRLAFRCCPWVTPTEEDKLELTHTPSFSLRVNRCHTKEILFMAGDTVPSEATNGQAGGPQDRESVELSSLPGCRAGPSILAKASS
Excerpt: 3. Determination of the NK-2-receptor-antagonistic Effectiveness of the Test Substances in vivo
The NK-2- and NK-1-antagonistic activities of the test substances were investigated in anaesthetised guinea pigs in each case after intravenous (=i.v.) and oral (=p.o.) administration in vivio. With the present test model it is possible to detect both NK-2-antagonistic effects in three different organ systems (respiratory tracts, colon and circulation) and NK-1-antagonistic effects (rapid drop in blood pressure) in an animal simultaneously.
Pirbright-White guinea pigs of a body weight of 500-700 g were anaesthetised with ketamine/xylazine (67/13 mg/kg subcutaneously, initial dose, further doses administered as required). The animals were provided with an intravenous catheter in order to administer the substance and an intra-arterial catheter to measure the blood pressure. The animals were artificially ventilated via a tracheal cannula and the respiratory pressure was recorded by means of a pressure transducer. A balloon was introduced into the distal colon of the animals for manometric recording of colon motility by means of a pressure transducer. Blood pressure, heart rate, respiratory pressure and colonic pressure were measured continuously for each animal and plotted on a recorder and by means of a digital data-processing system. Neurokinin A (=NKA; 200 pmol/animal) was administered i.v. as a bolus as a test stimulus to stimulate the NK-1- and the NK-2 receptors. An addition of NKA of this type results in a great increase in respiratory pressure (bronchoconstriction) and colonic pressure, and in a biphasic drop in blood pressure. The first phase of hypotension (=phase of maximum hypotension within the first minute after administration of NKA) is mediated via NK-1 receptors, since they can be blocked completely by specific NK-1 receptor antagonists. The second phase of delayed hypotension (=phase of maximum hypotension after 2-5 min.) on the other hand is mediated via NK-2 receptors, since they can be blocked by specific NK-2 receptor antagonists. The doses of the test substances are given as ED50 values which each result in a response to the NKA test stimulus which is reduced to 50% of the initial value, as characteristic variables for the individual measurement parameters bronchoconstriction, colonic pressure and change in blood pressure mediated by NK-1 or NK-2.
The antagonistic effects of the test substances were first investigated in cumulative form, the time of the NKA test stimulus being 1 min. after the administration of the respective doses of the test substances had ended. These ED50 values obtained from cumulative dose effect curves are plotted in Table 2 below. In order additionally to detect the variation over time of the antagonistic effects of the test substances, the action of the NKA test stimulus was determined at different times (1, 30, 60, 90, 120, 150 and 180 min.) after administration of the test substances.

[2] = target: T1, NK-2 receptors; test: Functional NK-2 antagonism on isolated guinea pig gall-bladder preparations (NKA-induced contraction); format: cell-based; conditions: inhibition of contraction caused by NKA 0.1 μmol/l; two hours' incubation; Pirbright-White guinea pig gall-bladder
Method: 2. Determination of the Functional Antagonism of the Test Substances on Isolated Guinea Pig Tissue in vitro
The NK-2 receptor-antagonising action of the test substances was determined on isolated gall-bladder preparations from Pirbright-White guinea pigs, held in an oxygen-saturated nutrient solution. To this end, the preparations were fastened on one hand in the nutrient solution to organ holders and on the other hand on a force meter by a thread.
In this test the NK-2 receptors present in the gall-bladder preparations were stimulated with the natural NK-2 receptor agonist neurokinin A (=NKA; 0.1 μmol/l) and the contractions of the preparations caused thereby were measured as contractility in mN (=preliminary value) measured. Then NKA was rinsed out of the preparations with NKA-free solution and the test substances were added in a concentration of 10^−7 mol/l. After two hours' incubation of the preparations with the test substances, the contractions of the preparations then still caused by renewed NKA addition were again measured and the results were given as percentages, relative to the contractions initially measured, caused solely by NKA addition. The concentration of the test substances was increased iteratively in the subsequent experiments as a function of the result in logarithmic whole or half steps, until at least one concentration above or below 50% inhibition of contraction was determined (up to at most 10^−5 mol/l). For each concentration, the average value of inhibition of contraction was calculated from 2 to 4 preparations. In each case, the concentration of half-maximum inhibition (IC50) per test substance was calculated as characteristic variable. In each case the logarithmised value of the IC50 per test substance is given as pIC50 in [mol/l].

[3] = guinea pig, iv, cumulative dosing, NKA stimulus 1 min. after administration, NK-2-mediated late drop in blood pressure, read-out: ED50 Blood pressure, i.v. after 1 min. (cumulative)
[4] = guinea pig, iv, cumulative dosing, NKA stimulus 1 min. after administration, respiratory resistance (bronchoconstriction), read-out: ED50 Respiratory resistance, i.v. after 1 min. (cumulative)
[5] = guinea pig, iv, cumulative dosing, NKA stimulus (200 pmol/animal i.v.) 1 min. after administration, colonic pressure, read-out: ED50 Colonic pressure, i.v. after 1 min. (cumulative)
[6] = guinea pig, iv, from AUC of antagonistic effect over 120 min after administration, colonic pressure, read-out: ED50 Colonic pressure, i.v. AUC over 120 min
[7] = guinea pig, iv, from AUC over 120 min after administration, NK-2-mediated drop in blood pressure, read-out: ED50 Blood pressure, i.v. AUC over 120 min
[8] = guinea pig, iv, from AUC over 120 min after administration, respiratory resistance, read-out: ED50 Respiratory resistance, i.v. AUC over 120 min
[9] = guinea pig, po, from AUC over 180 min after administration, NK-2-mediated drop in blood pressure, read-out: ED50 Blood pressure, p.o. AUC over 180 min.
[10] = guinea pig, po, from AUC over 180 min after administration, colonic pressure, read-out: ED50 Colonic pressure, p.o. AUC over 180 min.
[11] = guinea pig, po, from AUC over 180 min after administration, respiratory resistance, read-out: ED50 Respiratory resistance, p.o. AUC over 180 min.

Row | Compound | NK-2-receptor-antagonistic activity of colon motility, late drop in blood pressure and respiratory resistance (in words) [1] | ED50 [1, 3] | ED50 [1, 4] | ED50 [1, 5] | ED50 [1, 6] | ED50 [1, 7] | ED50 [1, 8] | ED50 [1, 9] | ED50 [1, 10] | ED50 [1, 11] | IC50 [2] | inhibition of the NK-2 mechanisms at the colon compared with bronchoconstrictive or hypotensive NK-2 effects (in words) ([1]; comparison of the Table 2 values) | onset and duration of action (in words) ([1]; variation over time of the antagonistic effect, guinea pig)
1 | CN(CC(CCN1CCN(C(c2ccco2)[C@H](O)[C@@H](O)[C@H](O)CO)CC1)c1ccc(Cl)c(Cl)c1)C(=O)c1ccccc1 (mixture of isomers) [Example 13] | marked NK-2-receptor-antagonistic activity | 0.08 µmol/kg | 0.048 µmol/kg | 0.019 µmol/kg | 0.018 µmol/kg | 0.025 µmol/kg | 0.023 µmol/kg | 24 µmol/kg | 1.9 µmol/kg | 2 µmol/kg | 0.398 nM | – | –
2 | CN(C[C@@H](CCN1CCN(C(c2ccsc2)[C@H](O)[C@@H](O)[C@H](O)CO)CC1)c1ccc(Cl)c(Cl)c1)C(=O)c1ccccc1 (stereo partly drawn) [Example 1, N-((2S)-2-(3,4-dichlorophenyl)-4-{4-[(2S,3R,4R)-2,3,4,5-tetrahydroxy-1-(3-thienyl)pentyl]-1-piperazinyl}butyl)-N-methylbenzamide] | marked NK-2-receptor-antagonistic activity | 0.025 µmol/kg | 0.033 µmol/kg | 0.017 µmol/kg | 0.0009 µmol/kg | 0.006 µmol/kg | 0.008 µmol/kg | 2.7 µmol/kg | 0.5 µmol/kg | 1.8 µmol/kg | 0.158 nM | more effective inhibition of the NK-2 mechanisms at the colon (colon preference) | slow-onset action of long duration
3 | CC(=O)OC[C@@H](OC(C)=O)[C@H](OC(C)=O)[C@@H](OC(C)=O)C(c1ccsc1)N1CCN(CC[C@H](CN(C)C(=O)c2ccccc2)c2ccc(Cl)c(Cl)c2)CC1 (some centres unmarked) [Example 14] | marked NK-2-receptor-antagonistic activity | 0.063 µmol/kg | 0.078 µmol/kg | 0.042 µmol/kg | – | – | – | 9.4 µmol/kg | 3.2 µmol/kg | 6.7 µmol/kg | 2 nM | – | –

Source: patent US6770649B2, “1-[1-(hetero)aryl-1-perhydroxyalkylmethyl]-piperazine compounds, process for their preparation and pharmaceutical compositions containing them” (Solvay Pharmaceuticals GmbH, priority 2001, dated 2004)
